Laboratory results reported in patent US5158958A, “Imidazo[4,5-b]quinolinyl oxy alkyl sulfonyl piperidine derivatives” (Bristol-Myers Squibb Company, priority 1992, dated 1992).
Counter-ions that a name gives are not always drawn.

Assay: Aqueous solubility
Format: physicochemical
Details: water, compounds prepared as dihydrochloride salts

Row | Structure (SMILES) | solubility
1 | O=S(=O)(CCCOc1ccc2[nH]c3nc(O)nc-3cc2c1)C1CCN(Cc2cccc(C(F)(F)F)c2)CC1 [Cmpd 17i, 4-[3-[2,3-Dihydro-2-oxo1H-imidazo[4,5-b]quinolin-7-yl-oxy]propyl]sulfony]1-[(3-trifluoromethylhenvlmethyphenylmethyl]piperidine dihydrochloride] | < 5000 µg/mL
2 | O=S(=O)(CCCOc1ccc2[nH]c3nc(O)nc-3cc2c1)C1CCN(Cc2ccc(F)cc2)CC1 [Cmpd 17c, 4-[[3-[2,3-Dihydro-2-oxo1H-imidazo[4,5-b]quinolin-7piperidinedihydrochloride] | > 10000 µg/mL
3 | O=S(=O)(CCCOc1ccc2[nH]c3nc(O)nc-3cc2c1)C1CCN(CC2CCCCC2)CC1 [Cmpd 17d, 4-[[3-[2,3-Dihydro-2-oxo-1H-imidazo[4,5-b]quinolin-7-yl-oxy]propyl]sulfonyl]-(cyclohexylmethyl)piperidine dihydrochloride] | < 10000 µg/mL
4 | CCC(CC)CN1CCC(S(=O)(=O)CCCCOc2ccc3[nH]c4nc(O)nc-4cc3c2)CC1 [l8e, 4[[3-[2,3-Dihydro-2-oxo-1H-imidazo[4.5-b]qouinolin-7-yloxy]butylsulfonyl]-1-(2-ethylbut-1-yl)piperidinedihydrochloride] | ~5000 µg/mL
5 | O=S(=O)(CCCCOc1ccc2[nH]c3nc(O)nc-3cc2c1)C1CCN(Cc2ccccc2)CC1 [Cmpd 18b, 4[[3-[2,3-Dihydro-2-oxo-1H-imidazo[4,5-b]quinolin-7-yloxyl]butylsulfonyl]-1-(phenylmethyl)piperidinedihydrochloride] | ~5000 µg/mL
6 | O=S(=O)(CCCCOc1ccc2[nH]c3nc(O)nc-3cc2c1)C1CCNCC1 [Cmpd 18a, 4-[[2,3-Dihydro-2-oxo-1H-imidazo[4,5-b]quinolin-7-yloxy]butyl]sulfonyl]piperidine dihydrochloride] | > 10000 µg/mL
7 | O=S(=O)(CCCOc1ccc2[nH]c3nc(O)nc-3cc2c1)C1CCN(CC2CCCCO2)CC1 (stereo not drawn) [Cmpd 17k, 4[[2,3-Dihydro-2-oxo-1H-imidazo[4,5-b]quinolin-7-yl-pxy]propyl]sulfonyl]-1-[(tetrahydro-2H-pyran-2-yl)piperidine dihydrochloride] | > 10000 µg/mL
8 | O=S(=O)(CCCCOc1ccc2[nH]c3nc(O)nc-3cc2c1)C1CCN(Cc2ccc(F)cc2)CC1 [l8c, dihydrochloride] | ~2000 µg/mL
9 | O=S(=O)(CCCOc1ccc2[nH]c3nc(O)nc-3cc2c1)C1CCN(Cc2ccccc2)CC1 [Cmpd 17b, 4-[[3-[2,3-Dihydro-2-oxy-1H-imidazo[4,5-b]quinolin-7-yloxy]propyl]sulfonyl]-1-(phenylmethyl)piperidine dihydrochloride] | > 10000 µg/mL
10 | O=S(=O)(CCCOc1ccc2[nH]c3nc(O)nc-3cc2c1)C1CCNCC1 [Cmpd 17a, 4-[[3-[[(2-,3-Dihydro-2-oxo-1H-imidazo[4,5-b]guinolin7-yl)oxy]propylsulfonyl]piperidinedihydrochloride] | > 10000 µg/mL
11 | CC(C)CN1CCC(S(=O)(=O)CCCOc2ccc3[nH]c4nc(O)nc-4cc3c2)CC1 [Cmpd 17f, 4[[3-[2,3-Dihydro-2-oxo-1H-imidazo[4.5-b]quinolin-7yloxy]propyl]sulfonyll-1-(2-methylpropyl)piperidinedihydrochloride] | > 10000 µg/mL
12 | O=S(=O)(CCCCOc1ccc2[nH]c3nc(O)nc-3cc2c1)C1CCN(CC2CCCCC2)CC1 [Cmpd 18d, 1-(Cyclohexylmethyl)-4-[[3-[2,3-Dihydro-2-oxo-1H-imidaxo [4,5-b]quinolin-7-yloxy]butylsulfonylpiperidinedihydrochloride] | ~2000 µg/mL
13 | O=S(=O)(CCCOc1ccc2[nH]c3nc(O)nc-3cc2c1)C1CCN(CCc2ccccc2)CC1 [Cmpd 17h, 4-[[3-[2,3-Dihydro-2-oxo-1H-imidazo[4,5-b]quinolin-7-yl-oxy]propyl]sulfonyl]-b 1-(2-phenylethyl)piperidine dihydrochloride] | < 5000 µg/mL
14 | O=S(=O)(CCCOc1ccc2[nH]c3nc(O)nc-3cc2c1)C1CCN(CCC2CCCCC2)CC1 [Cmpd 17g, 1-(2-Cyclohexylethyl)-4-[[(3-[(2,3-dihydro-2-oxo-1H-imidazo[4,5-b]quinolin-7-yloxy]propyl]sulfonyl]piperidinedihydrochloride] | < 5000 µg/mL
15 | CCC(CC)CN1CCC(S(=O)(=O)CCCOc2ccc3nc4[nH]c(=O)[nH]c4cc3c2)CC1.Cl.Cl [Cmpd 17e, 4-[[3-[2,3-Dihydro-2-oxo-1H-imidazo[4,5-b]quinolin-7yl-oxy]propyl]sulfonyl]1-(2-ethylbut-1yl)piperidine dihydrochloride] | < 10000 µg/mL
